According to PubChem BioAssay (NCI):
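Results reflect a 48-hour exposure of cells in 96-well plates to compound at five concentrations. TGI is the concentration that stops growth completely.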

Key:
Test in all cases: NCI tumour cell line growth inhibition, 48 h
NCI-H226 lung = tested on: NCI-H226 lung
T-47D breast = tested on: T-47D breast
SF-268 CNS = tested on: SF-268 CNS
MDA-MB-435 = tested on: MDA-MB-435
OVCAR-3 ovarian = tested on: OVCAR-3 ovarian
IGROV1 ovarian = tested on: IGROV1 ovarian
NCI/ADR-RES ovarian = tested on: NCI/ADR-RES ovarian
SNB-19 CNS = tested on: SNB-19 CNS
MOLT-4 leukemia = tested on: MOLT-4 leukemia
LOX IMVI melanoma = tested on: LOX IMVI melanoma
KM12 colon = tested on: KM12 colon
RPMI-8226 leukemia = tested on: RPMI-8226 leukemia
ACHN renal = tested on: ACHN renal
UACC-62 melanoma = tested on: UACC-62 melanoma
TK-10 renal = tested on: TK-10 renal
HOP-92 NSCLC = tested on: HOP-92 NSCLC

SMILES	TGI (NCI-H226 lung) [µM]	TGI (T-47D breast) [µM]	TGI (SF-268 CNS) [µM]	TGI (MDA-MB-435) [µM]	TGI (OVCAR-3 ovarian) [µM]	TGI (IGROV1 ovarian) [µM]	TGI (NCI/ADR-RES ovarian) [µM]	TGI (SNB-19 CNS) [µM]	TGI (MOLT-4 leukemia) [µM]	TGI (LOX IMVI melanoma) [µM]	TGI (KM12 colon) [µM]	TGI (RPMI-8226 leukemia) [µM]	TGI (ACHN renal) [µM]	TGI (UACC-62 melanoma) [µM]	TGI (TK-10 renal) [µM]	TGI (HOP-92 NSCLC) [µM]
Cc1cc(C)cc(Nc2nnc3n2S(=O)(=O)c2cc(C)c(Cl)cc2S3)c1	30.5	> 100	31.1	91.2	17.5	80.6	9.26	49.3	> 100	21.3	33.2	42	47.8	34.9	38.5	–
C=CCn1c(-c2cc(C(C)(C)C)c(O)c(C(C)(C)C)c2)cs/c1=N\C(P(=O)(O)O)P(=O)(O)O	> 100	> 100	> 100	> 100	> 100	> 100	> 100	> 100	> 100	–	> 100	> 100	> 100	–	> 100	> 100
CCOC(=O)COc1cc(-c2ccccc2F)nc2cc3c(cc12)OCO3	> 100	> 100	> 100	> 100	–	> 100	> 100	–	84.5	> 100	> 100	> 100	> 100	> 100	> 100	98.8
CN(C)c1ccc(/C=C/C(=O)c2cc(C(C)(C)C)c(O)c(C(C)(C)C)c2)cc1	> 65.9	> 100	> 52.1	1.87	–	> 100	6.64	> 100	> 100	> 100	> 25.7	8.63	> 100	> 100	> 43.1	> 100
CC(=N/NC(=S)N1CCCCCC1)/C(C)=N\NC(=S)N1CCCCCC1	9.23	3.54	11.2	3.41	14.3	8.44	16.8	48.1	> 100	–	17.9	> 100	9.67	12.7	8.87	2.77
Cc1ccc(C2(O)c3ccccc3C(=O)N(C)C2(O)c2ccc(C)cc2)cc1 (stereo unspecified)	–	> 100	50.6	> 100	> 100	> 100	> 100	64.1	35.1	> 100	> 100	> 100	–	> 100	> 100	91.1
COC(CNC(=O)CNC(=O)c1ccc(C(F)(F)F)cc1)OC	> 100	> 100	> 100	> 100	–	> 100	> 100	> 100	> 100	–	> 100	> 100	> 100	> 100	> 100	> 100
CN1C(=O)N(C)C2(CCN(CC(CC3OCCO3)c3ccc(F)cc3)CC2)C1=O (stereo unspecified)	> 100	> 100	> 100	> 100	> 100	> 100	> 100	> 100	> 100	> 100	–	> 100	> 100	> 100	> 100	> 100
